Data published in the NIST ThermoML archive (doi:10.1021/je060271a).
Several values for one entry are separate records, joined by “and”; a condition that tells them apart may be missing. Equal values may be shown once.

Conditions: 343.16 K, Liquid, Vibrating tube method

CCCCCC(=O)OCC(COC(=O)CCCCC)(COC(=O)CCCCC)COC(=O)CCCCC [pentaerythritol tetrahexanoate]
Conditions	mass density
251.1 kPa	957.3 kg/m3 and 957.2 kg/m3
254 kPa	957.3 kg/m3 and 957.1 kg/m3
254.2 kPa	957.2 kg/m3
254.4 kPa	957.3 kg/m3
254.5 kPa	957.3 kg/m3
255.8 kPa	957.3 kg/m3
255.9 kPa	957.3 kg/m3
256.3 kPa	957.3 kg/m3
258.5 kPa	957.2 kg/m3
258.7 kPa	957.2 kg/m3
258.9 kPa	957.3 kg/m3
259.1 kPa	957.2 kg/m3
260.1 kPa	957.2 kg/m3 and 957.3 kg/m3
263.7 kPa	957.2 kg/m3
264.3 kPa	957.3 kg/m3
264.6 kPa	957.3 kg/m3
264.8 kPa	957.2 kg/m3
265 kPa	957.2 kg/m3
265.1 kPa	957.3 kg/m3
265.5 kPa	957.2 kg/m3
265.7 kPa	957.3 kg/m3
266 kPa	957.2 kg/m3
266.2 kPa	957.3 kg/m3 and 957.2 kg/m3
266.5 kPa	957.3 kg/m3
266.7 kPa	957.3 kg/m3
267 kPa	957.3 kg/m3
267.2 kPa	957.4 kg/m3
267.6 kPa	957.2 kg/m3
267.7 kPa	957.3 kg/m3 and 957.4 kg/m3
268.3 kPa	957.4 kg/m3
268.4 kPa	957.2 kg/m3 and 957.3 kg/m3
268.6 kPa	957.3 kg/m3
269.1 kPa	957.2 kg/m3 and 957.3 kg/m3
269.5 kPa	957.3 kg/m3
269.8 kPa	957.2 kg/m3
270.2 kPa	957.3 kg/m3
270.3 kPa	957.3 kg/m3
270.5 kPa	957.3 kg/m3
271.4 kPa	957.4 kg/m3
271.6 kPa	957.2 kg/m3 and 957.3 kg/m3
271.7 kPa	957.4 kg/m3
272.1 kPa	957.2 kg/m3 and 957.3 kg/m3
272.3 kPa	957.3 kg/m3
272.6 kPa	957.3 kg/m3
273 kPa	957.3 kg/m3
273.3 kPa	957.3 kg/m3
274.7 kPa	957.1 kg/m3
274.9 kPa	957.4 kg/m3
275 kPa	957.2 kg/m3
276.9 kPa	957.4 kg/m3
279.9 kPa	957.2 kg/m3
280.2 kPa	957.4 kg/m3
280.4 kPa	957.3 kg/m3 and 957.4 kg/m3
280.6 kPa	957.3 kg/m3
280.9 kPa	957.2 kg/m3 and 957.3 kg/m3
281.3 kPa	957.3 kg/m3
281.5 kPa	957.3 kg/m3
281.8 kPa	957.2 kg/m3 and 957.4 kg/m3
282.3 kPa	957.4 kg/m3
282.7 kPa	957.4 kg/m3
282.9 kPa	957.3 kg/m3
283 kPa	957.3 kg/m3
283.4 kPa	957.3 kg/m3
283.9 kPa	957.2 kg/m3
284.2 kPa	957.3 kg/m3
284.4 kPa	957.3 kg/m3
284.7 kPa	957.3 kg/m3
284.8 kPa	957.3 kg/m3
285.4 kPa	957.3 kg/m3
290.3 kPa	957.4 kg/m3
290.5 kPa	957.3 kg/m3 and 957.4 kg/m3
290.7 kPa	957.4 kg/m3
293.8 kPa	957.1 kg/m3
294 kPa	957.4 kg/m3
294.3 kPa	957.2 kg/m3
294.7 kPa	957.2 kg/m3
294.8 kPa	957.2 kg/m3
295.2 kPa	957.2 kg/m3
295.5 kPa	957.3 kg/m3
295.9 kPa	957.3 kg/m3
296.4 kPa	957.2 kg/m3
299.9 kPa	957.4 kg/m3 and 957.3 kg/m3
300 kPa	957.4 kg/m3
300.2 kPa	957.4 kg/m3
300.6 kPa	957.2 kg/m3
300.7 kPa	957.3 kg/m3
300.9 kPa	957.2 kg/m3
301.1 kPa	957.2 kg/m3
301.3 kPa	957.3 kg/m3
301.6 kPa	957.4 kg/m3 and 957.3 kg/m3
302.1 kPa	957.3 kg/m3 and 957.4 kg/m3
302.5 kPa	957.2 kg/m3
302.7 kPa	957.3 kg/m3
303 kPa	957.3 kg/m3
303.2 kPa	957.2 kg/m3
304.2 kPa	957.3 kg/m3
304.6 kPa	957.2 kg/m3
304.7 kPa	957.4 kg/m3
305.1 kPa	957.2 kg/m3
305.4 kPa	957.4 kg/m3
307.2 kPa	957.3 kg/m3
310.1 kPa	957.3 kg/m3
310.3 kPa	957.4 kg/m3
310.5 kPa	957.3 kg/m3
310.6 kPa	957.4 kg/m3
312.2 kPa	957.3 kg/m3
312.6 kPa	957.2 kg/m3
313.1 kPa	957.4 kg/m3
313.6 kPa	957.4 kg/m3
313.9 kPa	957.4 kg/m3
314.3 kPa	957.4 kg/m3
314.5 kPa	957.4 kg/m3
314.6 kPa	957.2 kg/m3
314.8 kPa	957.4 kg/m3
315.3 kPa	957.3 kg/m3
315.5 kPa	957.4 kg/m3
317.1 kPa	957.4 kg/m3
317.4 kPa	957.3 kg/m3
318.1 kPa	957.3 kg/m3
321.6 kPa	957.4 kg/m3
322.1 kPa	957.4 kg/m3
325.6 kPa	957.3 kg/m3
328.2 kPa	957.3 kg/m3
328.7 kPa	957.4 kg/m3
328.9 kPa	957.3 kg/m3
329.2 kPa	957.4 kg/m3
329.6 kPa	957.3 kg/m3
329.9 kPa	957.2 kg/m3
330.1 kPa	957.4 kg/m3
330.6 kPa	957.3 kg/m3
330.8 kPa	957.3 kg/m3
331.3 kPa	957.4 kg/m3
331.5 kPa	957.4 kg/m3 and 957.3 kg/m3
332 kPa	957.3 kg/m3
332.4 kPa	957.3 kg/m3
332.5 kPa	957.3 kg/m3
332.9 kPa	957.3 kg/m3
337.1 kPa	957.2 kg/m3
337.6 kPa	957.4 kg/m3
337.8 kPa	957.3 kg/m3
344.9 kPa	957.4 kg/m3
345.2 kPa	957.4 kg/m3 and 957.3 kg/m3
345.9 kPa	957.4 kg/m3
346.4 kPa	957.5 kg/m3
353.7 kPa	957.3 kg/m3 and 957.4 kg/m3
